Literature values, collected in patent US20050032867A1, “Pharmaceutical composition comprising a 5ht1 receptor agonist” (priority 2001, published 2005).

effect of food on the overall bioavailability (administered orally): no significant effect
delay of Tmax (time to maximum observed serum concentrations) by food (administered orally with food): about 0.5 hour
SMILES: CNS(=O)(=O)Cc1ccc2[nH]cc(CCN(C)C)c2c1 [sumatriptan]
